From patent US20250333418A1, “PURINE COMPOUNDS, COMPOSITIONS COMPRISING THEM AND USES THEREOF” (Novo Nordisk A/S, priority 2022, published 2025) come the findings set out here.

Test [1] has as its target T1, human CB1 receptor (Homo sapiens, UniProt P21554).
T1 construct: expressed in transfected cells; host or cells: HEK293
Description: bioSensAll β-arrestin2 plasma membrane translocation (+GRK2) BRET biosensor assay in HEK293 cells transfected with hCB1; test compound added before EC75-80 of agonist CP55,940 (100 nM). Format: cell-based. Particulars: βArrestin2 (+GRK2) BRET biosensor, vs CP55,940 100 nM (EC75-80), read-out: CB1 wt βarr2 IC50. The method in brief: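 Antagonist mode: compound at 12 concentrations up to 600 nM, then 100 nM CP55,940 3–5 min later, on hCB1-transfected HEK293 cells carrying the β-arrestin2 plasma-membrane biosensor plus GRK2. After overnight 37 °C incubation, 515/400 nm BRET ratio measured with 2 µM methoxy e-CTZ and standardized against positive/negative controls.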

Test [2] deals with T1, human CB1 receptor. Description: bioSensAll GAPL-Gi2 BRET biosensor assay in HEK293 cells transfected with hCB1; test compound added before EC75-80 of agonist CP55,940 (0.1 nM). Type of test: cell-based. The conditions noted are these: vs CP55,940 0.1 nM (EC75-80), read-out: CB1 wt Gi2 IC50. The method in brief: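 Test compounds at 12 doses up to 600 nM preceded a 0.1 nM CP55,940 challenge in hCB1/GAPL-Gi2 HEK293 cells. After overnight 37° C incubation, methoxy e-coelenterazine (2 µM final) was added and the 515/400 nm BRET ratio normalized to positive and negative controls.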

T1 sequence (P21554 whole entry): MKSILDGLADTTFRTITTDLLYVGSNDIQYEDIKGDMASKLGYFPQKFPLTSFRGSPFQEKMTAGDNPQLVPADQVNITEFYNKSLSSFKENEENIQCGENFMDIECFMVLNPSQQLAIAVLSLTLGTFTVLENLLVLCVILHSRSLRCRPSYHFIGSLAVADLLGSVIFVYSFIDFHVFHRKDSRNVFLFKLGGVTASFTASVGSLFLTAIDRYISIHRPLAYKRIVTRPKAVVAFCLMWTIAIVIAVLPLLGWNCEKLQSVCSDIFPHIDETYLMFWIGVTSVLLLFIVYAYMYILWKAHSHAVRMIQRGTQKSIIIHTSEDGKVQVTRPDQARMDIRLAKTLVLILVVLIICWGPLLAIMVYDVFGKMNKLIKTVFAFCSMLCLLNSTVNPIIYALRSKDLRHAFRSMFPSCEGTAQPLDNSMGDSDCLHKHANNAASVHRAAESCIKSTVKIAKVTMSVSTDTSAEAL

`COC1(C)CN(c2nc(OCC(C)(C)O)nc3c2nc(-c2ccc(C#N)nc2)n3-c2ccc(Cl)cc2)C1` [Compound 114, 5-[9-(4-chlorophenyl)-2-(2-hydroxy-2-methyl-propoxy)-6-(3-methoxy-3-methyl-azetidin-1-yl)purin-8-yl]pyridine-2-carbonitrile]: the 50% inhibitory concentration (IC50) in test [1] came to 14.1 nM; in test [2], 3.87 nM.
Taken in the same sequence, the figures for `CO[C@H]1CCN(c2nc(N3CCC(C)(C(N)=O)CC3)c3nc(-c4ccccc4Cl)n(-c4ccc(Cl)cc4)c3n2)C1` [Compound 92, 1-[8-(2-chlorophenyl)-9-(4-chlorophenyl)-2-[(3S)-3-methoxypyrrolidin-1-yl]purin-6-yl]-4-methyl-piperidine-4-carboxamide] were 7.93 nM and 1.71 nM.
Taken in the same sequence, the figures for `CC(O)COc1nc(N2CCC(C(F)(F)F)CC2)c2nc(-c3ccccc3Cl)n(-c3ccc(Cl)cc3)c2n1` (single isomer, unassigned) [Compound 25, 1-[8-(2-chlorophenyl)-9-(4-chlorophenyl)-6-[4-(trifluoromethyl)-1-piperidyl]purin-2-yl]oxypropan-2-ol] were 2.06 nM and 0.706 nM.
For `CCNC1(C(N)=O)CCN(c2nc(N(C)CCO)nc3c2nc(-c2ccccc2Cl)n3-c2ccc(Cl)cc2)CC1` [Compound 148], the IC50 is 1.49 nM in test [1] and 1 nM in test [2].
Taken in the same sequence, the figures for `CC(C)(O)CNc1nc(N2CCC(C)(C(N)=O)CC2)c2nc(-c3ccccc3Cl)n(-c3ccc(Cl)cc3)c2n1` [Compound 85, 1-[8-(2-chlorophenyl)-9-(4-chlorophenyl)-2-[(2-hydroxy-2-methyl-propyl)amino]purin-6-yl]-4-methyl-piperidine-4-carboxamide] were 6.76 nM and 0.754 nM.
On the same counts, the results for `FC(F)(F)C1CCN(c2nc(-c3cc[nH]n3)nc3c2nc(-c2ccccc2Cl)n3-c2ccc(Cl)cc2)CC1` [Compound 39] are 16.4 nM and 3.29 nM.
On the same counts, the results for `CCOC1(C(N)=O)CCCN(c2nc(OCC(C)(C)O)nc3c2nc(-c2ccccc2Cl)n3-c2ccc(Cl)cc2)C1` (single isomer, unassigned) [Compound 216] are 8.61 nM and 1.77 nM.
For `CC(C)(O)COc1nc(N2CCC(C)(O)CC2)c2nc(-c3ccccc3Cl)n(-c3ccc(Cl)cc3)c2n1` [Compound 199], the values for the IC50 in test [1] and in test [2] were 3.27 nM and 0.732 nM, respectively.
On to `CC1(C(N)=O)CCN(c2nc(-c3cc[nH]n3)nc3c2nc(-c2ccccc2Cl)n3-c2ccc(Cl)cc2)CC1` [Compound 44], for which the IC50 worked out at 10 nM in test [1] and 2.1 nM in test [2].
`CN(CCO)c1nc(N2CCC(C)(C(N)=O)CC2)c2nc(-c3ccc(C#N)cn3)n(-c3ccc(Cl)cc3)c2n1` [Compound 64, 1-[9-(4-chlorophenyl)-8-(5-cyano-2-pyridyl)-2-[2-hydroxyethyl(methyl)amino]purin-6-yl]-4-methyl-piperidine-4-carboxamide]: the IC50 is 27.9 nM in test [1] and 2.45 nM in test [2].
For `CC1(C(N)=O)CCN(c2nc(N3CCC[C@@H]3CO)nc3c2nc(-c2ccccc2Cl)n3-c2ccc(Cl)cc2)CC1` [Compound 13, 1-[8-(2-chlorophenyl)-9-(4-chlorophenyl)-2-[(2R)-2-(hydroxymethyl)pyrrolidin-1-yl]purin-6-yl]-4-methyl-piperidine-4-carboxamide], the results for the IC50 in test [1] and in test [2] were greater than 5000 nM and 7.02 nM, respectively.
In the case of `CCOC1(C(N)=O)CN(c2nc(OCC(C)(C)O)nc3c2nc(-c2ccc(C#N)nc2)n3-c2ccc(Cl)cc2)C1` [Compound 139, 1-[9-(4-chlorophenyl)-8-(6-cyano-3-pyridyl)-2-(2-hydroxy-2-methyl-propoxy)purin-6-yl]-3-ethoxy-azetidine-3-carboxamide], the half-inhibitory concentration (IC50) in test [1] stood at 58.8 nM; in test [2], 7.55 nM.
